Data published in patent US5208243A, “5-isoquinolinesulfonamides” (Adir et Compagnie, priority 1991, dated 1993).
Where a name gives a salt, the structure may show the parent alone. Read-outs that look alike come from different tables or passages of the source. One block for each compound: values may come before it.

Tests used:
[1] = test system: rat aortas; assay: Contraction of rat aortas induced by potassium depolarization (hyperpotassium medium); design: species or system WISTAR rat; details: read-out: IC50 (concentration inhibiting by 50% the contraction of rat aortas induced by potassium depolarization)
From the text: The rings are linked to a STATHAM tension sensor (UC2-GOULD).

[2] = test system: rabbit aorta; assay: Contraction of rabbit aorta induced by noradrenaline in a normal physiological medium; design: species or system New Zealand rabbit; details: Oryctolagus cuniculus, noradrenaline 10^-6 M, read-out: IC50, noradrenaline stimulus
Method: (§1) Studies are carried out on rings, 3 mm in length, […] The vascular rings are immersed in a normal physiological solution or in a physiological solution lacking calcium (+0.2 mM of the chelating agent EGTA), which is thermostatically regulated at 37° C. and aerated with a 95% O2 +5% CO2 mixture. The rings are linked to a STATHAM tension sensor (UC2-GOULD). The optimal tension for each vessel is applied and a stabilization period of 90 min is observed for the preparations. a) Antivasoconstrictive activity of the compounds of the invention in a physiological medium.

[3] = test system: rabbit mesenteric artery; assay: Contraction of rabbit mesenteric artery induced by electrical stimulation; design: species or system New Zealand rabbit; details: Oryctolagus cuniculus, normal physiological medium
Method: as §1

[4] = test system: rabbit aorta; assay: Contraction of rabbit aorta induced by endothelin in a normal physiological medium; design: species or system New Zealand rabbit; details: Oryctolagus cuniculus, read-out: IC50, endothelin stimulus
Method: as §1

[5] = test system: rabbit aorta; assay: Contraction of rabbit aorta induced by phorbol ester in a normal physiological medium; design: species or system New Zealand rabbit; details: Oryctolagus cuniculus, TPA 10^-5 M, read-out: IC50, phorbol ester stimulus
Method: as §1

[6] = test system: rabbit aorta; assay: Vascular contraction of rabbit aorta induced by PDGF; design: species or system New Zealand rabbit; details: Oryctolagus cuniculus, 10^-5 M, preincubated 15 minutes
Method: as §1

[7] = test system: pig coronary artery; assay: Vascular contraction of pig coronary artery induced by acetylcholine; details: Sus scrofa, 10^-5 M, preincubated 15 minutes
Method: Studies are carried out on rings, 3 mm in length, - or of coronary arteries from pigs anesthetized with nesdonal (8 mg/kg intravenously). The vascular rings are immersed in a normal physiological solution or in a physiological solution lacking calcium (+0.2 mM of the chelating agent EGTA), which is thermostatically regulated at 37° C. and aerated with a 95% O2 +5% CO2 mixture. The rings are linked to a STATHAM tension sensor (UC2-GOULD). The optimal tension for each vessel is applied and a stabilization period of 90 min is observed for the preparations. a) Antivasoconstrictive activity of the compounds of the invention in a physiological medium.

[8] = test system: rabbit aortas; assay: Contraction of rabbit aortas induced by noradrenaline in a medium without calcium; design: species or system New Zealand rabbit; details: Oryctolagus cuniculus, 0.5 h, rabbit aorta, incubated 30 minutes; for inhibition at 1 µM: compound 10^-6 M; for inhibition at 0.1 µM: compound 10^-7 M
Method: as §1, with “b)” for “a)”, “medium without calcium.” for “physiological medium.”

[9] = test system: rabbit aorta; assay: Contraction of rabbit aorta induced by angiotensin II in a medium without calcium; design: species or system New Zealand rabbit; details: Oryctolagus cuniculus, 10^-5 M, medium lacking calcium
Method: as §1, with “b)” for “a)”, “medium without calcium.” for “physiological medium.”

[10] = test system: rabbit aorta; assay: Contraction of rabbit aorta induced by endothelin in a medium without calcium; design: species or system New Zealand rabbit; details: Oryctolagus cuniculus, 10^-5 M, medium lacking calcium
Method: as §1, with “b)” for “a)”, “medium without calcium.” for “physiological medium.”

[11] = test system: rabbit aorta; assay: Contraction of rabbit aorta induced by phorbol ester in a medium without calcium; design: species or system New Zealand rabbit; details: Oryctolagus cuniculus, 10^-5 M, medium lacking calcium
Method: as §1, with “b)” for “a)”, “medium without calcium.” for “physiological medium.”

[12] = test system: Rabbit iliac artery; assay: Contraction of rabbit iliac artery induced by caffeine in a medium without calcium; design: species or system New Zealand rabbit; details: Oryctolagus cuniculus, 10^-5 M, medium lacking calcium
Method: as §1, with “b)” for “a)”, “medium without calcium.” for “physiological medium.”

[13] = test system: guinea pig left auricle; assay: Ouabain intoxication of guinea pig left auricle; details: compound 10^-6 M
[14] = test system: guinea pig left auricle; assay: Veratridine intoxication of guinea pig left auricle; details: compound 10^-5 M
Method: a) Effect of the compounds of the invention on the intoxication of guinea pig left auricle.
The left auricles are removed from guinea pigs (350-450 g) anesthetized with sodium pentobarbital (30 mg/kg). The auricles are attached to a STATHAM tension sensor (UC2-GOULD) and the initial tension applied is 0.5 grams.
The auricles are electrically stimulated at 1 Hz by means of platinum electrodes. The intoxications are produced either by the addition of ouabain (10^-6 M) or by the addition of veratridine (10^-5 M). The test compounds are added 15 minutes before adding the toxic agent.

[15] = test system: isolated heart; assay: Isolated heart subjected to an ischemia-reperfusion sequence; design: species or system WISTAR rat; details: Rattus norvegicus, concentration of 810^-7 M (so in the source)
Method: b) Protective effect of the compounds of the invention on an isolated heart subjected to an ischemia-reperfusion sequence.
The heart is removed from WISTAR rats (325-375 g). The heart is rapidly perfused according to the technique of LANGENDORFF at a constant pressure of 101.310^2 Pa and electrically stimulated at 5 Hz.
The heart is subjected to a 30 min ischemia (produced by complete stoppage of the perfusion) followed by a 60 min reperfusion. The test compounds are incubated for 15 min before the ischemia.
Isovolumetric contractions are recorded by means of a polyethylene ballonet linked to a pressure sensor (P23-GOULD) introduced into the left ventricle and inflated so as to obtain a diastolic pressure of between 6.710^2 and 13.310^2 Pa.

[16] = test system: smooth muscle cells of the aorta; assay: Proliferation rate after endothelial denudation of the aorta (3H-thymidine incorporation); assay type: in vivo, WISTAR rat; details: 10 mg/kg orally, daily
Method: D/ Effect of the compounds of the invention on the proliferation rate after endothelial denudation. […] After pretreatment for 6 days (J6), denudation of the aortic endothelium of the animals is performed according to the following method: After anesthetizing the animal with methohexital (Brietal, 60 mg/kg intraperitoneally), an embolectomy probe (Fogarty 2F) is introduced into the aorta through the left carotid. Aortic deendothelialization is achieved by three successive passages of the probe. Three days after the endothelial denudation (J9), the rats are sacrificed and the aorta is removed, incubated in a physiological solution for 1 hour at 37° C., and then transferred into a ^3 H-thymidine-enriched Krebs- Henseleit solution (specific activity: […]) for 1 hour at 37° C. This is followed by a one-hour post-incubation in a Krebs-Henseleit solution lacking ^3 H-thymidine. After washing in a Tris-EDTA buffer, the proliferation rate is calculated from the incorporation of 3H-thymidine. [drawing 17]

SMILES: CN(C1CCN(CCCCOc2ccc(F)cc2)CC1)S(=O)(=O)c1cccc2cnccc12 [Example 1, N-Methyl-N-{1-[4-(pfluorophenoxy)butyl]-4-piperidyl}-5-isoquinolinesulfonamide fumarate]
IC50 [1]: 0.85 µM
IC50 [2]: 1.4 µM
IC50 [3]: 0.4 µM
IC50 [4]: 8.1 µM
IC50 [5]: 300 µM
inhibition at 10 µM [6]: 20%
inhibition at 10 µM [7]: 61%
inhibition at 1 µM [8]: 61%
inhibition at 10 µM [9]: 40%
inhibition at 10 µM [10]: 42%
inhibition at 10 µM [11]: 66%
inhibition at 10 µM [12]: 30%
% contraction ([13]; 10 min): 192 ± 29%
Contracture (%) ([13]; 15 min): 0%
% contraction ([13]; 30 min): 187.5 ± 30%
Contracture (%) ([13]; 30 min): 1.9 ± 1.9%
% contraction ([13]; 60 min): 148.3 ± 33%
Contracture (%) ([13]; 60 min): 18 ± 7%
% contraction ([14]; 5 min): 158 ± 11%
% contraction ([14]; 15 min): 60.5 ± 13%
Contracture (%) ([14]; 15 min): 23.5 ± 6.2%
Contracture (%) ([14]; 30 min): 52.2 ± 4.7%
% contraction ([14]; 60 min): 20.5 ± 4.6%
Contracture (%) ([14]; 60 min): 60.7 ± 4.4%
inhibition at 0.8 µM ([15]; 0.5 h, read-out: reduction of the contracture developed after 30 minutes of ischemia, relative to control): 47%
activation at 0.8 µM ([15]; 1 h, end of 60 minutes of reperfusion, read-out: improvement of the functional recuperation of the hearts relative to control): 55%
reduction of the proliferation of smooth muscle cells [16]: 40%

IC50 ([1]; 80 mM KCl, 37 mM NaCl): 1.3 µM
SMILES: CN(C1CCN(CCCCOc2ccc([N+](=O)[O-])cc2)CC1)S(=O)(=O)c1cccc2cnccc12 [Example 2, N-Methyl-N-{1-[4-(p-nitrophenoxy)butyl]-4-piperidyl}-5-isoquinolinesulfonamide fumarate]
inhibition at 1 µM [8]: 12%

IC50 ([1]; 80 mM KCl, 37 mM NaCl): 1.7 µM
SMILES: CN(C1CCN(CCCCOc2ccccc2)CC1)S(=O)(=O)c1cccc2cnccc12 [Example 3, N-Methyl-N-{1-[4-(phenoxy)butyl]4-piperidyl}-5 isoquinolinesulfonamide fumarate]
inhibition at 1 µM [8]: 47%

IC50 ([1]; 80 mM KCl, 37 mM NaCl): 1.1 µM
SMILES: CN(C1CCN(CCCCOc2ccc(Cl)cc2)CC1)S(=O)(=O)c1cccc2cnccc12 [Example 6, N-Methyl-N-{1-[4-(p-chlorophenoxy)butyl4-piperidyl}-5-isoquinolinesulfonamide hydrochloride]
inhibition at 1 µM [8]: 18%

IC50 ([1]; 80 mM KCl, 37 mM NaCl): 1.9 µM
SMILES: COc1ccc(OCCCCN2CCC(N(C)S(=O)(=O)c3cccc4cnccc34)CC2)cc1 [Example 7, N-Methyl-N-{1-[4-(p-methoxyphenoxy)butyl]-4-piperidyl}-5-isoquinolinesulfonamide hydrochloride]
inhibition at 1 µM [8]: 13%

IC50 ([1]; 80 mM KCl, 37 mM NaCl): 0.95 µM
SMILES: CN(C1CCN(CCCCOc2ccc(C#N)cc2)CC1)S(=O)(=O)c1cccc2cnccc12 [Example 8, N-Methyl N-{1-[4-(p-cyanophenoxy)butyl]4-piperidyl}-5-isoquinolinesulfonamide dihydrochloride]

IC50 ([1]; 80 mM KCl, 37 mM NaCl): 1.3 µM
SMILES: CN(C1CCN(CCCCSc2ccc(F)cc2)CC1)S(=O)(=O)c1cccc2cnccc12 [Example 12, N-Methyl-N-{1-[4-(p-fluorophenylthio)butyl]-4-piperidyl}-5-isoquinolinesulfonamide dihydrochloride]
inhibition at 1 µM [8]: 19%

IC50 ([1]; 80 mM KCl, 37 mM NaCl): 2.9 µM
SMILES: O=S(=O)(NC1CCN(CCCCOc2ccc(F)cc2)CC1)c1cccc2cnccc12 [Example 13, N-{1-[4-(p-fluorophenoxy)butyl]4-piperidyl)}-5-isoquinolinesulfonamide dihydrochloride]
inhibition at 1 µM [8]: 42%

IC50 ([1]; 80 mM KCl, 37 mM NaCl): 3.5 µM
SMILES: O=S(=O)(NCC1CCN(CCCOc2ccc(F)cc2)CC1)c1cccc2cnccc12 [Example 15, N-{[1-[3-(p-Fluorophenoxy)propyl]-4-piperidyl]methyl}-5-isoquinolinesulfonamide]
inhibition at 1 µM [8]: 59%

IC50 ([1]; 80 mM KCl, 37 mM NaCl): 2.8 µM
SMILES: CN(CC1CCN(CCCOc2ccccc2)CC1)S(=O)(=O)c1cccc2cnccc12 [Example 19, N-Methyl-N-{[1-[3-(phenoxy)propyl]-4-piperidyl]methyl}-5-isoquinolinesufonamide]
inhibition at 1 µM [8]: 67%
inhibition at 0.1 µM [8]: 31%

IC50 ([1]; 80 mM KCl, 37 mM NaCl): 1.9 µM
SMILES: CN(CC1CCN(CCCCOc2ccc(F)cc2)C1)S(=O)(=O)c1cccc2cnccc12 (stereo not shown) [Example 21, N-Methyl-N-{[1-[4-(p-fluorophenoxy)butyl]-3-pyrrolidinyl]methyl}-5-isoquinolinesulfonamide dihydrochloride]
inhibition at 1 µM [8]: 73%
inhibition at 0.1 µM [8]: 17%

IC50 ([1]; 80 mM KCl, 37 mM NaCl): 3.6 µM
SMILES: CN(CC1CCN(CCCOc2ccc(F)cc2)C1)S(=O)(=O)c1cccc2cnccc12 (stereo not shown) [Example 22, N-Methyl-N-{[1-[3-(p-fluorophenoxy)propyl]-3-pyrrolidinyl]methyl}-5-isoquinolinesulfonamide dihydrochloride]
inhibition at 1 µM [8]: 82%
inhibition at 0.1 µM [8]: 43%

IC50 ([1]; 80 mM KCl, 37 mM NaCl): 4.5 µM
SMILES: O=S(=O)(NCC1CCN(CCCNc2ccc(F)cc2)CC1)c1cccc2cnccc12 [Example 24, N-{[1-[3-(p-fluorophenylamino)propyl]-4-piperidyl]methyl}-5-isoquinolinesulfonamide fumarate]
inhibition at 1 µM [8]: 67%
inhibition at 0.1 µM [8]: 38%

SMILES: CN(CC1CCN(CCCNc2ccc(F)cc2)CC1)S(=O)(=O)c1cccc2cnccc12 [Example 25, N-Methyl-N-{1-[3-(p-fluorophenylamino)propyl]-4-piperidyl]methyl}-5-isoquinolinesulfonamide fumarate]
inhibition at 1 µM [8]: 77%
inhibition at 0.1 µM [8]: 22%

IC50 ([1]; 80 mM KCl, 37 mM NaCl): 5.3 µM
SMILES: CCN(C1CCN(CCCCOc2ccc(F)cc2)CC1)S(=O)(=O)c1cccc2cnccc12 [Example 26, N-Ethyl-N-{1-[4-(p-fluorophenoxy)butyl]-4-piperidyl}-5-isoquinolinesulfonamide dihydrochloride]
inhibition at 1 µM [8]: 26%
